Reference: US20070010548A1, “Compounds having inhibitive activity of phosphatidylinositol 3-kinase and methods of use thereof” (ZENTARIS GmbH, priority 2003, published 2007)

Test system: MA-MB-468 cells
Assay: Three dimensional matrix model of tumor cell growth
Assay type: cell-based
Conditions: Homo sapiens, read-out: Percent Inhibition of Tumor Cell Viability
Description: PI 3-K inhibitors are assayed for effects on tumor cells grown in three-dimensional matrix that more closely mimics the environment of a tumor than other cell culture models. MA-MB-468 cells are mixed in a matrix solution, such as Matrigel (13D Biosciences) at 2×10 ^6 cells/ml and 100 μl of this mixture added to each well of a 24 well cell culture plate. Each well is 6.5 mm in diameter and 2×10^5 cells are added per well. Once the matrix is solidified, RMPI media containing 10% fetal calf serum and 2 mM L-glutamine is added to each well. After approximately 14 days of culture, the compounds are added to cell media at final concentrations ranging from 10 nM to 100 μM, and the cells are grown in the presence of the compounds for 7 days in RMPI media containing 0.5% fetal calf serum and 20 mM L-glutamine.
Following this treatment, cell growth in the three dimensional matrix can be measured using a cell viability assay such as the CellTiter 96 One Solution Cell Proliferation Assay (Promega, G3582). […] of assay solution is added per well, the cells are incubated for 3 hours. Absorbance at 550 nm is determined for each well and used directly as being equivalent of cell number. In addition, live and dead cells can be distinguished and observed using fluorescence microscopy after staining with Fluorescein diacetate (Sigma), which labels live cells, and propidium iodide (Sigma), which labels dead cells.
The PI 3-K inhibitors of the present invention show anti-proliferative effects in this model of tumor cell growth, as shown by the representative data in Table 6, which compares the anti-proliferative effects of one inhibitor compared to the effects of the benchmark PI 3-K inhibitor LY294002. The PI 3-K inhibitors of the present invention also show enhanced anti-proliferative activity when combined with other cancer drugs, for example paclitaxel or doxorubicin.

CC1(C)CC(=O)C2=C(C1)Nc1c(c(C(C)(C)C)nn1C(C)(C)C)C2c1ccc(OCc2ccccc2)c(OCc2ccccc2)c1 (stereo not shown) [Compound 963985]
cytotoxicity at 1 µM (Concentration 1 μM): 10% | cytotoxicity at 5 µM (Concentration 5 μM): 20% | cytotoxicity at 10 µM (Concentration 10 μM): 30% | cytotoxicity at 50 µM (Concentration 50 μM): 40%
